The values below come from patent US11312712B2, “Azabenzimidazoles and their use as AMPA receptor modulators” (Janssen Pharmaceutica NV, priority 2015, dated 2022).

GluA1o-γ8 (GRIA1o-CACNG8 fusion construct), sequence (P42261 other isoform, or with tags, fused parts or gaps): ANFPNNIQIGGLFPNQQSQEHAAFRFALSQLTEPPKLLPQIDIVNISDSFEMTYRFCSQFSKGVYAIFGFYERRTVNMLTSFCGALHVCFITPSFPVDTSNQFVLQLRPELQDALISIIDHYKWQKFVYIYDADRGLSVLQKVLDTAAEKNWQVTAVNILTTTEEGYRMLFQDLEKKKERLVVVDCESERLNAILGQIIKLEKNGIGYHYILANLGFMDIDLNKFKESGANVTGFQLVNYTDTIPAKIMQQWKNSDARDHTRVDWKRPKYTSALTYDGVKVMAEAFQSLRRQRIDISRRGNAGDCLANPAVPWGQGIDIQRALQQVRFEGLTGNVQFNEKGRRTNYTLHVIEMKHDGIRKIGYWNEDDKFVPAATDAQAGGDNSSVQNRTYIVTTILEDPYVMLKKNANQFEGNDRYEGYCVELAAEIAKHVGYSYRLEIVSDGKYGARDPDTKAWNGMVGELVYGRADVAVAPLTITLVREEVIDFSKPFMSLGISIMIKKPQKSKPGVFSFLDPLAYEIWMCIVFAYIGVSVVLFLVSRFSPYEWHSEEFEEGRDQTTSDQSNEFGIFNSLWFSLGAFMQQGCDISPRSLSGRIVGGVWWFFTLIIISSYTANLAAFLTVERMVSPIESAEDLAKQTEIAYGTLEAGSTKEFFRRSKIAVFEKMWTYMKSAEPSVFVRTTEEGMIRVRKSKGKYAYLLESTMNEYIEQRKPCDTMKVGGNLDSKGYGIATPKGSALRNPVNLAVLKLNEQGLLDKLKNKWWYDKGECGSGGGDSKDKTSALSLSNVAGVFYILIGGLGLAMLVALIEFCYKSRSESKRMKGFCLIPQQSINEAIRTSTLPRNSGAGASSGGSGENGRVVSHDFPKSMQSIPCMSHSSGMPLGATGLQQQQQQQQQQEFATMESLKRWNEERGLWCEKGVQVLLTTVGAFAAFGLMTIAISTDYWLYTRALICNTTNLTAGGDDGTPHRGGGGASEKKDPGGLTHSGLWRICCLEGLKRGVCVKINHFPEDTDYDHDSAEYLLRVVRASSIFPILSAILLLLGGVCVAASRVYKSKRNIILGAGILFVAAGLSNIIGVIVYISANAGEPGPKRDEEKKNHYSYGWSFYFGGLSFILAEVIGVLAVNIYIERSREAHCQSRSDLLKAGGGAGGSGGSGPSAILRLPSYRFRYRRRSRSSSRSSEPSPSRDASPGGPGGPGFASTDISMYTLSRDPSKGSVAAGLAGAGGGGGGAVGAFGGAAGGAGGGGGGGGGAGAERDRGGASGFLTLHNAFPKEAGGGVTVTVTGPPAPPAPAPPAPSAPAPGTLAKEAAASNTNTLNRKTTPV

This test has as its target GluA1o-γ8 (GRIA1o-CACNG8 fusion construct) (Homo sapiens (Human), UniProt P42261+Q8WXS5). Briefly: Calcium flux assay (FLIPR), inhibition of TARP γ8 dependent AMPA receptor activity. The format is cell-based. Conditions: GluA1o-γ8 (GRIA1o-CACNG8 fusion) in HEK293 cells, calcium flux after 15 μM glutamate. The method in brief:
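Glutamate (15 μM) was added to a stable HEK293 line carrying the GluA1o–γ8 fusion, which had been preincubated with compound and calcium dye in HEPES buffer, pH 7.4. Normalized FLIPR fluorescence (no compound vs 10 μM CP465022) was fitted with four parameters; pIC50 is the midpoint's negative log.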
`O=c1[nH]c2c(F)cc(-n3c(C(F)(F)F)nc4ccc(C(F)(F)F)nc43)cc2o1` [Example 283, 6-[2,5-Bis(trifluoromethyl)imidazo[4,5-b]pyridin-3-yl]-4-fluoro-3H-1,3-benzoxazol-2-one]: the IC50 was 2.51 nM.

As to `COC(=O)c1cc(-n2c(C(F)(F)F)nc3ccc(C(F)(F)F)nc32)cc2cn[nH]c12` [Example 284, Methyl 5-[2,5-bis(trifluoromethyl)imidazo[4,5-b]pyridin-3-yl]-1H-indazole-7-carboxylate], the IC50 was 126 nM.

For `COC(=O)c1cc(-n2c(C(F)F)nc3ccc(C(F)(F)F)nc32)cc2cn[nH]c12` [Example 285, Methyl 5-[2-(difluoromethyl)-5-(trifluoromethyl)imidazo[4,5-b]pyridin-3-yl]-1H-indazole-7-carboxylate], the IC50 was 251 nM.

With `Cc1cc(-n2c(C(F)F)nc3ccc(C(F)(F)F)nc32)cc2cn[nH]c12` [Example 286, 2-(Difluoromethyl)-3-(7-methyl-1H-indazol-5-yl)-5-(trifluoromethyl)imidazo[4,5-b]pyridine], the 50% inhibitory concentration (IC50) is 0.0501 nM.

On to `Cc1cc(-n2c(C(F)F)nc3ccc(C(F)(F)F)nc32)cc2c1NC(=O)C2` [Example 287, 5-[2-(Difluoromethyl)-5-(trifluoromethyl)imidazo[4,5-b]pyridin-3-yl]-7-methyl-indolin-2-one], for which the half-maximal inhibitory concentration (IC50) was 0.158 nM.

As to `O=C1Cc2cc(-n3c(C(F)F)nc4ccc(C(F)(F)F)nc43)cc(F)c2N1` [Example 288, 5-[2-(Difluoromethyl)-5-(trifluoromethyl)imidazo[4,5-b]pyridin-3-yl]-7-fluoro-indolin-2-one], the 50% inhibitory concentration (IC50) was 6.31 nM.

For the molecule `Cc1cc(-n2c(C(F)(F)F)nc3ccc(C(F)(F)F)nc32)cc2[nH]ncc12` [Example 289, 3-(4-Methyl-1H-indazol-6-yl)-2,5-bis(trifluoromethyl)imidazo[4,5-b]pyridine], the IC50 was 3.98 nM.

For the molecule `O=c1[nH]c2c(Br)cc(-n3c(C(F)(F)F)nc4ccc(C(F)(F)F)nc43)cc2o1` [Example 290, 6-[2,5-Bis(trifluoromethyl)imidazo[4,5-b]pyridin-3-yl]-4-bromo-3H-1,3-benzoxazol-2-one], the concentration for half-maximal inhibition (IC50) was 0.2 nM.

For the molecule `FC(F)(F)c1ccc2nc(C(F)(F)F)n(-c3ccc4cn[nH]c4c3)c2n1` [Example 291, 3-(1H-Indazol-6-yl)-2,5-bis(trifluoromethyl)imidazo[4,5-b]pyridine], the IC50 was 63.1 nM.

Consider `O=C1Cc2cc(-n3c(C(F)(F)F)nc4ccc(C(F)(F)F)nc43)cnc2N1` [Example 292, 5-[2,5-Bis(trifluoromethyl)imidazo[4,5-b]pyridin-3-yl]-1,3-dihydropyrrolo[2,3-b]pyridin-2-one], for which the IC50 was 7.94 nM.

In the case of `FC(F)(F)c1ccc2nc(C(F)(F)F)n(-c3cnc4[nH]ccc4c3)c2n1` [Example 293, 3-(1H-Pyrrolo[2,3-b]pyridin-5-yl)-2,5-bis(trifluoromethyl)imidazo[4,5-b]pyridine], the IC50 was 39.8 nM.

`Cc1cc(-n2c(C(F)(F)F)nc3ccc(C(F)(F)F)nc32)cc2cn[nH]c12` [Example 294, 3-(7-Methyl-1H-indazol-5-yl)-2,5-bis(trifluoromethyl)imidazo[4,5-b]pyridine]: the concentration for half-maximal inhibition (IC50) was 0.02 nM.

For the molecule `N#Cc1n[nH]c2ccc(-n3c(C(F)(F)F)nc4ccc(C(F)(F)F)nc43)cc12` [Example 295, 5-[2,5-Bis(trifluoromethyl)imidazo[4,5-b]pyridin-3-yl]-1H-indazole-3-carbonitrile], the 50% inhibitory concentration (IC50) is 39.8 nM.

Turning to `Oc1n[nH]c2ccc(-n3c(C(F)F)nc4ccc(C(F)(F)F)nc43)cc12` [Example 296, 5-[2-(Difluoromethyl)-5-(trifluoromethyl)imidazo[4,5-b]pyridin-3-yl]-1H-indazol-3-ol], the half-maximal inhibitory concentration (IC50) was 158 nM.

Take `O=C1Cc2ccc(-n3c(C4CC4)nc4ccc(C(F)(F)F)nc43)cc2N1` [Example 297, 6-[2-Cyclopropyl-5-(trifluoromethyl)imidazo[4,5-b]pyridin-3-yl]indolin-2-one]: the IC50 is 1000 nM.

On to `CC(C)c1nc2ccc(C(F)(F)F)nc2n1-c1ccc2[nH]nc(Br)c2c1` [Example 298, 3-(3-Bromo-1H-indazol-5-yl)-2-isopropyl-5-(trifluoromethyl)imidazo[4,5-b]pyridine], for which the half-maximal inhibitory concentration (IC50) was 79.4 nM.

With `CC(C)c1nc2ccc(C(F)(F)F)nc2n1-c1cc(Cl)c2c(c1)CC(=O)N2` [Example 299, 7-Chloro-5-[2-isopropyl-5-(trifluoromethyl)imidazo[4,5-b]pyridin-3-yl]indolin-2-one], the concentration for half-maximal inhibition (IC50) is 0.2 nM.

Consider `CC(C)c1nc2cc(F)cnc2n1-c1cc(Cl)c2[nH]ncc2c1` [Example 300, 3-(7-Chloro-1H-indazol-5-yl)-6-fluoro-2-isopropyl-imidazo[4,5-b]pyridine], for which the IC50 was 2.51 nM.

`CC(C)c1nc2ccc(C(F)(F)F)nc2n1-c1cnc2c(c1)CC(=O)N2` [Example 301, 5-[2-Isopropyl-5-(trifluoromethyl)imidazo[4,5-b]pyridin-3-yl]-1,3-dihydropyrrolo[2,3-b]pyridin-2-one]: the IC50 was 31.6 nM.

`CC(C)c1nc2ccc(C(F)(F)F)nc2n1-c1cnc2[nH]ncc2c1` [Example 302, 2-Isopropyl-3-(1H-pyrazolo[3,4-b]pyridin-5-yl)-5-(trifluoromethyl)imidazo[4,5-b]pyridine]: the half-inhibitory concentration (IC50) was 39.8 nM.

With `CC(C)c1nc2ccc(C(F)(F)F)nc2n1-c1cnc2[nH]ccc2c1` [Example 303, 2-Isopropyl-3-(1H-pyrrolo[2,3-b]pyridin-5-yl)-5-(trifluoromethyl)imidazo[4,5-b]pyridine], the 50% inhibitory concentration (IC50) is 31.6 nM.

For `C=CCc1cc(-n2c(C(F)(F)F)nc3ccc(C(F)(F)F)nc32)cc2cn[nH]c12` [Example 304, 3-(7-Allyl-1H-indazol-5-yl)-2,5-bis(trifluoromethyl)-3H-imidazo[4,5-b]pyridine], the half-maximal inhibitory concentration (IC50) was 63.1 nM.

For the molecule `C=C(C)c1cc(-n2c(C(F)(F)F)nc3ccc(C(F)(F)F)nc32)cc2cn[nH]c12` [Example 305, 3-(7-(Prop-1-en-2-yl)-1H-indazol-5-yl)-2,5-bis(trifluoromethyl)-3H-imidazo[4,5-b]pyridine], the IC50 was 0.02 nM.

Turning to `FC(F)(F)c1ccc2ncn(-c3cc(Cl)c4[nH]ncc4c3)c2n1` [Example 306, 3-(7-Chloro-1H-indazol-5-yl)-5-(trifluoromethyl)imidazo[4,5-b]pyridine], the half-maximal inhibitory concentration (IC50) is 2.51 nM.

Consider `FC(F)(F)c1ccc2nc(C3CC3)n(-c3cc(Cl)c4[nH]ncc4c3)c2n1` [Example 307, 3-(7-Chloro-1H-indazol-5-yl)-2-cyclopropyl-5-(trifluoromethyl)imidazo[4,5-b]pyridine], for which the IC50 is 0.00501 nM.

Turning to `FC(F)(F)c1ccc2nc(C3CCC3)n(-c3cc(Cl)c4[nH]ncc4c3)c2n1` [Example 308, 3-(7-Chloro-1H-indazol-5-yl)-2-cyclobutyl-5-(trifluoromethyl)imidazo[4,5-b]pyridine], the IC50 is 0.00501 nM.

`Cc1cc(-n2c(C)nc3ccc(C(F)(F)F)nc32)cc2c1NC(=O)C2` [Example 309, 7-Methyl-5-[2-methyl-5-(trifluoromethyl)imidazo[4,5-b]pyridin-3-yl]indolin-2-one]: the IC50 was 0.631 nM.

Regarding `Cc1cc(-n2c(C(C)C)nc3ccc(C(F)(F)F)nc32)cc2c1NC(=O)C2` [Example 310, 5-[2-Isopropyl-5-(trifluoromethyl)imidazo[4,5-b]pyridin-3-yl]-7-methyl-indolin-2-one], the half-maximal inhibitory concentration (IC50) was 0.158 nM.

Turning to `Cc1cc(-n2c(C(C)C)nc3ccc(C(F)(F)F)nc32)cc2[nH]ncc12` [Example 311, 2-Isopropyl-3-(4-methyl-1H-indazol-6-yl)-5-(trifluoromethyl)imidazo[4,5-b]pyridine], the concentration for half-maximal inhibition (IC50) was 15.8 nM.

For the molecule `Cc1nc2ccc(C(F)(F)F)nc2n1-c1cc(Cl)c2[nH]ncc2c1` [Example 312, 3-(7-Chloro-1H-indazol-5-yl)-2-methyl-5-(trifluoromethyl)imidazo[4,5-b]pyridine], the 50% inhibitory concentration (IC50) was 0.251 nM.

For the molecule `Cc1nc2ccc(C(F)(F)F)nc2n1-c1cc(Cl)c2c(c1)CC(=O)N2` [Example 313, 7-Chloro-5-[2-methyl-5-(trifluoromethyl)imidazo[4,5-b]pyridin-3-yl]indolin-2-one], the half-maximal inhibitory concentration (IC50) is 1 nM.

On to `CCc1nc2ccc(C(F)(F)F)nc2n1-c1cc(Cl)c2[nH]ncc2c1` [Example 314, 3-(7-Chloro-1H-indazol-5-yl)-2-ethyl-5-(trifluoromethyl)imidazo[4,5-b]pyridine], for which the IC50 is 0.0316 nM.

`CCc1nc2ccc(C(F)(F)F)nc2n1-c1cc(C)c2[nH]ncc2c1` [Example 315, 2-Ethyl-3-(7-methyl-1H-indazol-5-yl)-5-(trifluoromethyl)imidazo[4,5-b]pyridine]: the IC50 is 0.1 nM.

In the case of `CC(C)c1nc2ccc(C(F)(F)F)nc2n1-c1cc(Cl)c2[nH]ncc2c1` [Example 316, 3-(7-Chloro-1H-indazol-5-yl)-2-isopropyl-5-(trifluoromethyl)imidazo[4,5-b]pyridine], the IC50 was 0.02 nM.

With `Cc1cc(-n2c(C(F)(F)F)nc3cccnc32)cc2cn[nH]c12` [Example 317, 3-(7-Methyl-1H-indazol-5-yl)-2-(trifluoromethyl)imidazo[4,5-b]pyridine], the half-maximal inhibitory concentration (IC50) is 10 nM.

Consider `Cc1cc(-n2c(C(F)(F)F)nc3cccnc32)cc2c1NC(=O)C2` [Example 318, 7-Methyl-5-[2-(trifluoromethyl)imidazo[4,5-b]pyridin-3-yl]indolin-2-one], for which the IC50 was 31.6 nM.

On to `Cc1cc(-n2c(C)nc3ccc(C(F)(F)F)nc32)cc2cn[nH]c12` [Example 319, 2-Methyl-3-(7-methyl-1H-indazol-5-yl)-5-(trifluoromethyl)imidazo[4,5-b]pyridine], for which the half-maximal inhibitory concentration (IC50) was 0.631 nM.

Consider `FC(F)(F)c1nc2ccc(-c3ccccn3)nc2n1-c1ccc2[nH]ncc2c1` [Example 320, 3-(1H-Indazol-5-yl)-5-(2-pyridyl)-2-(trifluoromethyl)imidazo[4,5-b]pyridine], for which the half-inhibitory concentration (IC50) was 200 nM.
